From article PMC9849758, “Chemically diverse activity-based probes with unexpected inhibitory mechanisms targeting trypsin-like serine proteases” (Frontiers in Chemistry, 2023)
Entries after “also recorded” stand apart in the source; their conditions may differ. Structures can show the parent of a compound that is named as a salt. Where two headings read alike, the source gives them in different places.

Experiments:
[1] = target: T1, Neutrophil Elastase (recombinant neutrophil elastase) (Homo sapiens, UniProt P08246); assay: IC50 determination, spectrophotometric protease assay; format: biochemical
T1 construct: purchased Enzo LifeSciences
T1 sequence (P08246 30-267): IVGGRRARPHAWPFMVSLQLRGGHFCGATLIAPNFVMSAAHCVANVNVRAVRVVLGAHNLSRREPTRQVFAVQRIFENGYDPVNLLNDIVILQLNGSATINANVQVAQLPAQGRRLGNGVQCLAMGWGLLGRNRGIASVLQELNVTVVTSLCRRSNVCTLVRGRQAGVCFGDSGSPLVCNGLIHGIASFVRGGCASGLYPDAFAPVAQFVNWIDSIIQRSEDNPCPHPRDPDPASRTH
In short: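 Enzymatic cleavage, with substrate at the Km, was recorded for 30 min at 37°C via chromogenic pNA or fluorogenic AMC release. A third experiment was added when SD exceeded three times the IC50.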

[2] = target: T2, Thrombin (Homo sapiens, UniProt P00734); assay: Kinetic progress curves (kapp, K1, KI*, mechanism); format: biochemical; settings: for Ki / Thrombin kapp: mean ± SD; for Thrombin kapp: apparent second-order rate constant from progress curves; for Thrombin mechanism of inhibition: defined by the progress curves: slow-binding (Rev.) or irreversible (Irrev.)
T2 construct: purchased R&D
Procedure: Because the compounds described in this paper were previously described as irreversible inhibitors, the IC50 value is inversely correlated with the second-order rate constant of inactivation. For a simple pseudo-first-order inactivation process, the activity after incubation with inhibitor (vi) varies with the inhibitor concentration (i), as described in the following equation: vi=v0·e^−kit where v0 is the activity in the absence of an inhibitor, k is the second-order rate constant of inactivation, and t is the time. The inactivation rate constant was determined from the time course of inhibition.
Kinetic assays were performed in the following manner. The inhibitor was mixed with the substrate, and the buffer solution with the enzyme was added at the time zero. The progress curves show the release of pNA or AMC as a function of time. Initially, no inhibitor is bound to the enzyme, and the tangent to the progress curve (dA/dt) is proportional to the free enzyme concentration. The free enzyme concentration decreases over time due to inhibitor binding kinetics, as described above. Progress curves were recorded in pseudo-first-order conditions ([I]0>>[E]0) and with less than 10% conversion of the substrate during the entire time course. In these conditions, dA/dt decreases exponentially with time. The progress curves were fitted with the integrated rate equation with GraFit7 to yield a value for kobs, a pseudo-first-order rate constant. At=Ao+vs∙t+vi−vs∙1−e^−kobs∙t/kobs where At is the absorbance at time t, A0 is the absorbance at time zero, vi is the initial rate and vs is the velocity at the steady-state.
The apparent second-order rate constant (kapp) was calculated from the slope of the linear part of the plot of kobs vs. the inhibitor concentration ([I]0). In the case of competition between the inhibitor and the substrate, kapp is smaller than the “real” second-order rate constant k discussed above because a certain fraction of the enzyme is present as an enzyme-substrate complex. kapp depends on the substrate concentration used in the experiment, as described by [Lambeir et al. (1996)].
The apparent equilibrium constants were obtained from the following equations, vi/vo=1/1+I/K1; vS/vo=1/1+I/KI* where vi is the initial rate, vs is the steady-state velocity and vo is the uninhibited initial rate.

[3] = target: β-tryptase (Homo sapiens, UniProt P20231); assay: Labeling and detection of recombinant proteases (SDS-PAGE blot, NeutrAvidin-HRP); format: binding; settings: 1 µM ABP, 100 ng protease, 30 min 37°C, denaturing SDS-PAGE blot
Sequence of β-tryptase (P20231 31-275): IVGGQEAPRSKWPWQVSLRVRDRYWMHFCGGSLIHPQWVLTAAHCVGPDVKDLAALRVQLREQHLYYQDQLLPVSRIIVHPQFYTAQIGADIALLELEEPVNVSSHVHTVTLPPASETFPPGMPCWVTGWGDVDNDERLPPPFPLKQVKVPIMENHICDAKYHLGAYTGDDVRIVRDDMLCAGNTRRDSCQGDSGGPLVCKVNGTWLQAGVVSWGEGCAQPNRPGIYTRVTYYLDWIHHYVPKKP
Procedure: Recombinant proteases (100 ng) were labeled with 1 µM ABP in reaction buffer in a final volume of 40 µL for 30 min at 37°C. After the addition of 4X Laemmli buffer (Bio-Rad, GmbH) supplemented with Bond-Breaker Tris (2-CarboxyEthyl)Phosphine (TCEP) Solution (Thermo Scientific, United States), the samples were heated at 95°C for 5 min and loaded into 4%–20% Mini-Protean TGX precast gels (Bio-Rad, GmbH). After electrophoresis, the proteins were blotted onto nitrocellulose membranes using the Trans-Blot Transfer Turbo System (Bio-Rad). Membranes were incubated with NeutrAvidin-HRP (1:50,000), and bands were visualized with ECL Select Western Blot Detection Reagent (GE Healthcare Life Sciences) by chemiluminescence (Chemidoc XRS; Bio-Rad). The molecular weight of each band was determined with the Image Lab Software v5 (Bio-Rad).
To further characterize the newly synthesized compounds and their potential to be used as ABPs, nine desthiobiotin probes were used for the labeling and detection of recombinant proteases. The arginine (45b–46b) and the proline-lysine (58b) desthiobiotin probes were used as reference compounds. Whereas the benzyl guanidine (50b, 52b, 54b) and phenyl guanidine probes (55b–57b) were used to determine whether the mechanism of inhibition (reversible or irreversible) is an obstacle to visualize the proteases. Samples of human recombinant proteases (trypsin-3, β-tryptase, and CatG) were incubated with the different probes before electrophoresis and detection with NeutrAvidin-HRP on a Western blot. Figure 7A illustrates the ability of the desthiobiotin probes to indicate the presence of the corresponding trypsin-like enzyme. […] This effect can be explained due to the strong interactions between the active site of the protease and the probes. The high affinity and the slow off-rates were described in Table 5 by the equilibrium constants KI*. Assuming that there is an excess of inhibitor over enzyme, the free inhibitor concentration must be very low, lower than the KI*, in order for the complex to dissociate. Therefore, the high affinity complex E*I survives during the whole process of labeling, gel electrophoresis, and visualization.

[4] = Thrombin KI*, apparent equilibrium constant of the overall process
[5] = Thrombin K1, apparent equilibrium constant of the first step of slow-binding
[6] = read-out: Thrombin K1, apparent equilibrium constant of the first step of slow-binding
[7] = read-out: Thrombin KI*, apparent equilibrium constant of the overall process

Row | Compound | IC50 [1] | Ki [2, 4] | Thrombin kapp [2] | Thrombin mechanism of inhibition [2] | labeling of recombinant β-tryptase [3] | Ki [2, 5] | Ki [2, 6] | Ki [2, 7]
1 | CC(=O)Nc1ccc(OP(=O)(Oc2ccc(NC(C)=O)cc2)C(Cc2ccc(NC(=N)N)cc2)NC(=O)OCCCc2cn(CCOCCOCCOCCNC(=O)CCCCC[C@H]3NC(=O)N[C@H]3C)nn2)cc1 (some centres unmarked) [52b] | > 10 µM | 0.62 ± 0.08 µM | 49 ± 5 M⁻¹ s⁻¹ | Rev. | can label | – | – | –
2 | C#CCCCOC(=O)NC(Cc1ccc(NC(=N)N)cc1)P(=O)(Oc1ccccc1)Oc1ccccc1 (centres unmarked) [34b] | > 10 µM | 4.93 ± 0.51 µM | 17 ± 1 M⁻¹ s⁻¹ | Rev. | – | 134 ± 26 µM | – | –
3 | C#CCCCOC(=O)NC(CCCNC(=N)N)P(=O)(Oc1ccc(Cl)cc1)Oc1ccc(Cl)cc1 (centres unmarked) [33b] | – | 0.28 ± 0.04 µM | 11 × 10^2 ± 42 M^−1 s^−1 | reversible inhibition and Rev. | – | 4.13 ± 0.7 µM | – | –
4 | C[C@@H]1NC(=O)N[C@@H]1CCCCCC(=O)NCCOCCOCCOCCn1cc(CCCOC(=O)NC(CCCNC(=N)N)P(=O)(Oc2ccccc2)Oc2ccccc2)nn1 (some centres unmarked) [45b] | – | – | 19 ± 2 M⁻¹ s⁻¹ | Rev. | not good ABP candidates | – | 9.97 ± 1 µM | 1.14 ± 0.11 µM
5 | C[C@@H]1NC(=O)N[C@@H]1CCCCCC(=O)NCCOCCOCCOCCn1cc(CCCOC(=O)NC(c2ccc(NC(=N)N)cc2)P(=O)(Oc2ccc(Cl)cc2)Oc2ccc(Cl)cc2)nn1 (some centres unmarked) [57b] | – | – | – | – | slightly better resolution | – | – | –
6 | C[C@@H]1NC(=O)N[C@@H]1CCCCCC(=O)NCCOCCOCCOCCn1cc(CCCOC(=O)NC(Cc2ccc(NC(=N)N)cc2)P(=O)(Oc2ccccc2)Oc2ccccc2)nn1 (stereo partly drawn) [50b, 3-(1-(18-((4R,5S)-5-methyl-2-oxoimidazolidin-4-yl)-13-oxo-3,6,9-trioxa-12-azaoctadecyl)-1H-1,2,3-triazol-4-yl)propyl (1-(diphenoxyphosphoryl)-2-(4-guanidinophenyl)ethyl)carbamate trifluoroacetate salt] | > 10 µM | 1.55 ± 0.25 µM | 47 ± 5 M⁻¹ s⁻¹ | Rev. | can label | – | – | –
7 | C#CCCCOC(=O)NC(C1CCN(C(=N)N)CC1)P(=O)(Oc1ccccc1)Oc1ccccc1 (centres unmarked) [41b] | > 10 µM | – | 41 × 10^2 ± 38 M^−1 s^−1 | irreversible inhibition; also recorded: Irrev | – | – | – | –
8 | C[C@@H]1NC(=O)N[C@@H]1CCCCCC(=O)NCCOCCOCCOCCn1cc(CCCOC(=O)NC(CCCNC(=N)N)P(=O)(Oc2ccc(Cl)cc2)Oc2ccc(Cl)cc2)nn1 (some centres unmarked) [46b] | – | – | 63 × 10^2 ± 290 M^−1 s^−1 | Rev. | not good ABP candidates | – | 0.95 ± 0.2 µM | 0.07 ± 0.009 µM
9 | C#CCCCOC(=O)NC(Cc1ccc(NC(=N)N)cc1)P(=O)(Oc1ccc(Cl)cc1)Oc1ccc(Cl)cc1 (centres unmarked) [36b] | > 10 µM | 0.03 ± 0.002 µM | 251 ± 16 M⁻¹ s⁻¹ | Rev. | – | 9.03 ± 0.5 µM | – | –
10 | C[C@@H]1NC(=O)N[C@@H]1CCCCCC(=O)NCCOCCOCCOCCn1cc(CCCOC(=O)NC(Cc2ccc(NC(=N)N)cc2)P(=O)(Oc2ccc(Cl)cc2)Oc2ccc(Cl)cc2)nn1 (some centres unmarked) [54b] | > 10 µM | 0.06 ± 0.006 µM | – | * ^d Rev. | can label; also recorded: slightly better resolution | – | – | –
11 | C#CCCCOC(=O)NC(Cc1ccc(NC(=N)N)cc1)P(=O)(Oc1ccc(NC(C)=O)cc1)Oc1ccc(NC(C)=O)cc1 (centres unmarked) [35b] | > 10 µM | 0.63 ± 0.04 µM | 128 ± 5 M⁻¹ s⁻¹ | Rev. | – | 32.7 ± 4 µM | – | –
12 | C#CCCCOC(=O)NC(c1ccc(NC(=N)N)cc1)P(=O)(Oc1ccccc1)Oc1ccccc1.O=C(O)C(F)(F)F (centres unmarked) [37b, Pent-4-yn-1-yl ((diphenoxyphosphoryl)(4-guanidinophenyl)methyl)carbamate trifluoroacetate salt] | > 10 µM | – | – | – | – | – | – | –
13 | C#CCCCOC(=O)NC(CCCNC(=N)N)P(=O)(Oc1ccccc1)Oc1ccccc1 (centres unmarked) [32b] | > 10 µM | 0.45 ± 0.03 µM | 64 ± 8 M⁻¹ s⁻¹ | Rev. | – | 22.6 ± 5 µM | – | –
